Laboratory results from ChEMBL document CHEMBL5131405, “Inhibition of ALK2 with bicyclic pyridyllactams” (Bioorg Med Chem Lett, 2022).

Experiments:
[1] = molecular target: T1, Activin receptor type-1 (Homo sapiens, UniProt Q04771); assay: Inhibition of ALK2 in human HeLa cells assessed as inhibition of SMAD1 phosphorylation; type: cell-based
T1 sequence (Q04771 whole entry): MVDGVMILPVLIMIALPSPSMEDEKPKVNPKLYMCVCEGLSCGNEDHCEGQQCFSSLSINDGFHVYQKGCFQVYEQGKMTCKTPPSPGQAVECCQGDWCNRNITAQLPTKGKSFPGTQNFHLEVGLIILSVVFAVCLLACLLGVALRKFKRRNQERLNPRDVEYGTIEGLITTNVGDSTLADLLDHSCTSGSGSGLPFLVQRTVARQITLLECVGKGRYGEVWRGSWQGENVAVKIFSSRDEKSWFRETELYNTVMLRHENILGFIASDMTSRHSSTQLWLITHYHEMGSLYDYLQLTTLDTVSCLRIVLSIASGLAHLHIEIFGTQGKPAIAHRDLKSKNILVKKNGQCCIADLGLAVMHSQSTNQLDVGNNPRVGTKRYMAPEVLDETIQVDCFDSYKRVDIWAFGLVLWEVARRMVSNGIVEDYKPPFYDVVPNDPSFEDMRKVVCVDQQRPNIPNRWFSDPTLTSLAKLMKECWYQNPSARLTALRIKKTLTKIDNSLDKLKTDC

[2] = molecular target: Activin receptor type-1-like (Homo sapiens, UniProt P37023); assay: Inhibition of ALK1 (unknown origin); type: toxicity
Chain of Activin receptor type-1-like (P37023 whole entry): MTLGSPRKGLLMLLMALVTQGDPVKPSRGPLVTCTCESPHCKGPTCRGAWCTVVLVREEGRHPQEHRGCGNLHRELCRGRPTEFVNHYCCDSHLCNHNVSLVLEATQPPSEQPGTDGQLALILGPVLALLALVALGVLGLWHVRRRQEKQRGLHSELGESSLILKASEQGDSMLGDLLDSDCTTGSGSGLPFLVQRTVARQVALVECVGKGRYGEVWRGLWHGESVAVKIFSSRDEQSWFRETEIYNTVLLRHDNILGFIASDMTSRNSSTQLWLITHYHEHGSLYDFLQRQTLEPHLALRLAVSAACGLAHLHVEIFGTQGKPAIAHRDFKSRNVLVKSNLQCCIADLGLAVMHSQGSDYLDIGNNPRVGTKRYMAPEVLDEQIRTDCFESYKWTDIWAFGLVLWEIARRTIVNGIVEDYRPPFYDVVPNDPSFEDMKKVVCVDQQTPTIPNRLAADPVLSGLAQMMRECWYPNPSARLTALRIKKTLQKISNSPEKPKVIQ

[3] = molecular target: T2, Bone morphogenetic protein receptor type-1A (Homo sapiens, UniProt P36894); assay: Inhibition of ALK3 (unknown origin)
T2 sequence (P36894 whole entry): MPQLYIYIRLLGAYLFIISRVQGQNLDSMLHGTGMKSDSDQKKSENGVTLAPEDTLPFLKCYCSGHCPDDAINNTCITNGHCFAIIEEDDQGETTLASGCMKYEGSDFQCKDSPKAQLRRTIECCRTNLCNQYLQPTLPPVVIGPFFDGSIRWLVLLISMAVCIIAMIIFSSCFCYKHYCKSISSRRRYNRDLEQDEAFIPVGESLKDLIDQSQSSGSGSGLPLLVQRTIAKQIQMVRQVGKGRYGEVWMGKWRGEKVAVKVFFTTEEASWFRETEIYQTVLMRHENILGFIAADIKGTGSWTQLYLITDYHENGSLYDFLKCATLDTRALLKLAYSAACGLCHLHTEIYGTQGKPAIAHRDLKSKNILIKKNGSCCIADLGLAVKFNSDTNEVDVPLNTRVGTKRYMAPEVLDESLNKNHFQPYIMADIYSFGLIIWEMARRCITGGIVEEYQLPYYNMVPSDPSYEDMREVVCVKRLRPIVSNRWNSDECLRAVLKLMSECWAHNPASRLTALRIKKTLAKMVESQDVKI

[4] = molecular target: T1, Activin receptor type-1; assay: Inhibition of ALK2 (unknown origin)
[5] = molecular target: T1, Activin receptor type-1; assay: Inhibition of human recombinant ALK2 (172 to 499 residues) expressed in baculovirus-infected insect cells by ADP-Glo kinase assay
[6] = molecular target: T2, Bone morphogenetic protein receptor type-1A; assay: Inhibition of human recombinant ALK3 (198 to 525 residues) expressed in baculovirus-infected insect cells by ADP-Glo kinase assay

| IC50 [1] | IC50 [3] | IC50 [4] | IC50 [5] | IC50 [6] | Compound | IC50 [2] |
| --- | --- | --- | --- | --- | --- | --- |
| 415 nM | 400 nM | 5.3 nM |  |  | Nc1ncc(-c2cnn(C3CCNCC3)c2)c2c1C(=O)N(C1C3CC4CC(C3)CC1C4)CC2 (stereo unspecified) | 27 nM |
|  |  |  | 3.6 nM | 560 nM | C[C@@H]1CCCN1Cc1ccc(-c2cnc(N)c(C(=O)N[C@H]3CC[C@](C)(O)CC3)c2)cc1F |  |
